Test results published in paper PMC10176470, “Engaging a Non-catalytic Cysteine Residue Drives Potent and Selective Inhibition of Caspase-6” (Journal of the American Chemical Society, 2023).

Legend:
Format in all cases: cell-based
[1] = biological target: T1, proteins of HEK293T cells transiently overexpressing caspase-6 (Homo sapiens, UniProt P00390)
T1 sequence (P00390 44-522): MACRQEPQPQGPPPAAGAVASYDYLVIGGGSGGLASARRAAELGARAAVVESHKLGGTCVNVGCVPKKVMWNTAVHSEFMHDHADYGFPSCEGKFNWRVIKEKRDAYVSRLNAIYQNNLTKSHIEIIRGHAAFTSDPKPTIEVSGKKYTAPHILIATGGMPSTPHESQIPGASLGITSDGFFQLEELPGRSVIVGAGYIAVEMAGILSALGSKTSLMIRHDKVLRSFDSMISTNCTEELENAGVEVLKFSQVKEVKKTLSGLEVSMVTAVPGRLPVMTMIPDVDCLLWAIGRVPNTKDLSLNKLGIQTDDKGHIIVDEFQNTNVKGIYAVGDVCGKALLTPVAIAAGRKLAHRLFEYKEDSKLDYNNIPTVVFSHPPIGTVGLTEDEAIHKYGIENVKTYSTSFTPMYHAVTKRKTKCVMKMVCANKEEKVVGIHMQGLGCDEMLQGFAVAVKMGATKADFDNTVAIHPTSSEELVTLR

[2] = biological target: proteins of HEK293T cells transiently overexpressing caspase-6 (Homo sapiens, UniProt P04406); details: exp_ref Probe; protein GAPDH (P04406); analysis C6
[3] = biological target: proteins of HEK293T cells transiently overexpressing caspase-6 (Homo sapiens, UniProt P08195); details: protein SLC3A2 (P08195); exp_ref Probe; analysis C6
[4] = biological target: proteins of HEK293T cells transiently overexpressing caspase-6 (Homo sapiens, UniProt P15880); details: protein RPS2 (P15880)
[5] = biological target: proteins of HEK293T cells transiently overexpressing caspase-6 (Homo sapiens, UniProt P21333)
[6] = biological target: proteins of HEK293T cells transiently overexpressing caspase-6 (Homo sapiens, UniProt P23526); details: exp_ref Probe; protein AHCY (P23526); analysis C6
[7] = biological target: proteins of HEK293T cells transiently overexpressing caspase-6 (Homo sapiens, UniProt P27797); details: exp_ref Probe; protein CALR (P27797); analysis C6
[8] = biological target: proteins of HEK293T cells transiently overexpressing caspase-6 (Homo sapiens, UniProt P34897); details: Probe; protein SHMT2 P34897
[9] = biological target: T2, proteins of HEK293T cells transiently overexpressing caspase-6 (Homo sapiens, UniProt P40926); details: protein MDH2 (P40926)
T2 sequence (P40926 25-338): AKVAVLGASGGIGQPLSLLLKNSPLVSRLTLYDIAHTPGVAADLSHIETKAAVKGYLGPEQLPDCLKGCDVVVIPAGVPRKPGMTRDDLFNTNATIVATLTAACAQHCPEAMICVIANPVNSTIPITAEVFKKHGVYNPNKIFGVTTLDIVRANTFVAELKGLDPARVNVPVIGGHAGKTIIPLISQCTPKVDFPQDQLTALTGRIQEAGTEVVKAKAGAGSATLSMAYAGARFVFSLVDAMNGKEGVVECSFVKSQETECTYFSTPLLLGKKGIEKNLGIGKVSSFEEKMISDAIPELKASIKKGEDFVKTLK

[10] = biological target: proteins of HEK293T cells transiently overexpressing caspase-6 (Homo sapiens, UniProt Q16658); details: exp_ref Probe; protein FSCN1 (Q16658); analysis C6
[11] = biological target: proteins of HEK293T cells transiently overexpressing caspase-6 (Homo sapiens, UniProt Q92841); details: exp_ref Probe; protein DDX17 (Q92841); analysis C6
[12] = biological target: T3, proteins of HEK293T cells transiently overexpressing caspase-6 (Homo sapiens, UniProt Q96RQ3)
T3 sequence (Q96RQ3 42-725): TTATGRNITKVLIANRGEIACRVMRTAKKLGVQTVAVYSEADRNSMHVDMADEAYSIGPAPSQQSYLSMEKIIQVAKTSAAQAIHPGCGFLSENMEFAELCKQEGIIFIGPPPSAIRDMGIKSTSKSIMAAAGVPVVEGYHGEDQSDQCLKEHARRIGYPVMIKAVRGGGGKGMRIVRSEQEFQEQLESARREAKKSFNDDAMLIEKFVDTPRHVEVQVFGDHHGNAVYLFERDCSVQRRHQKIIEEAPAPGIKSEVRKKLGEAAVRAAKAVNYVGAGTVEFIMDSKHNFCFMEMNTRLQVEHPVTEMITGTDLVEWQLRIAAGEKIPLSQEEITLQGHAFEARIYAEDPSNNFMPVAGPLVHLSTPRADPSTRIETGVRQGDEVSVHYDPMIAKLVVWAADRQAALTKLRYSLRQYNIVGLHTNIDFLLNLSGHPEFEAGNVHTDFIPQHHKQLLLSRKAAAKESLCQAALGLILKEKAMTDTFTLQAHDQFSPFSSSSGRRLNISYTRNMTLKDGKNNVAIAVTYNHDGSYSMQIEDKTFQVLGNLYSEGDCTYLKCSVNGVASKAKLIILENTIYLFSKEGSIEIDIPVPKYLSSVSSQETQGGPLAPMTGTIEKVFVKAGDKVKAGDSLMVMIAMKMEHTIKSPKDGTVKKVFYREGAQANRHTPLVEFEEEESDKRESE

[13] = biological target: proteins of HEK293T cells transiently overexpressing caspase-6 (Homo sapiens, UniProt Q99798); details: exp_ref Probe; protein ACO2 (Q99798); analysis C6
[14] = biological target: proteins of HEK293T cells transiently overexpressing caspase-6 (Homo sapiens, UniProt Q9Y5M8); details: exp_ref Probe; protein SRPRB (Q9Y5M8); analysis C6

Sequence of proteins of HEK293T cells transiently overexpressing caspase-6 (Homo sapiens, UniProt P21333) (P21333 whole entry): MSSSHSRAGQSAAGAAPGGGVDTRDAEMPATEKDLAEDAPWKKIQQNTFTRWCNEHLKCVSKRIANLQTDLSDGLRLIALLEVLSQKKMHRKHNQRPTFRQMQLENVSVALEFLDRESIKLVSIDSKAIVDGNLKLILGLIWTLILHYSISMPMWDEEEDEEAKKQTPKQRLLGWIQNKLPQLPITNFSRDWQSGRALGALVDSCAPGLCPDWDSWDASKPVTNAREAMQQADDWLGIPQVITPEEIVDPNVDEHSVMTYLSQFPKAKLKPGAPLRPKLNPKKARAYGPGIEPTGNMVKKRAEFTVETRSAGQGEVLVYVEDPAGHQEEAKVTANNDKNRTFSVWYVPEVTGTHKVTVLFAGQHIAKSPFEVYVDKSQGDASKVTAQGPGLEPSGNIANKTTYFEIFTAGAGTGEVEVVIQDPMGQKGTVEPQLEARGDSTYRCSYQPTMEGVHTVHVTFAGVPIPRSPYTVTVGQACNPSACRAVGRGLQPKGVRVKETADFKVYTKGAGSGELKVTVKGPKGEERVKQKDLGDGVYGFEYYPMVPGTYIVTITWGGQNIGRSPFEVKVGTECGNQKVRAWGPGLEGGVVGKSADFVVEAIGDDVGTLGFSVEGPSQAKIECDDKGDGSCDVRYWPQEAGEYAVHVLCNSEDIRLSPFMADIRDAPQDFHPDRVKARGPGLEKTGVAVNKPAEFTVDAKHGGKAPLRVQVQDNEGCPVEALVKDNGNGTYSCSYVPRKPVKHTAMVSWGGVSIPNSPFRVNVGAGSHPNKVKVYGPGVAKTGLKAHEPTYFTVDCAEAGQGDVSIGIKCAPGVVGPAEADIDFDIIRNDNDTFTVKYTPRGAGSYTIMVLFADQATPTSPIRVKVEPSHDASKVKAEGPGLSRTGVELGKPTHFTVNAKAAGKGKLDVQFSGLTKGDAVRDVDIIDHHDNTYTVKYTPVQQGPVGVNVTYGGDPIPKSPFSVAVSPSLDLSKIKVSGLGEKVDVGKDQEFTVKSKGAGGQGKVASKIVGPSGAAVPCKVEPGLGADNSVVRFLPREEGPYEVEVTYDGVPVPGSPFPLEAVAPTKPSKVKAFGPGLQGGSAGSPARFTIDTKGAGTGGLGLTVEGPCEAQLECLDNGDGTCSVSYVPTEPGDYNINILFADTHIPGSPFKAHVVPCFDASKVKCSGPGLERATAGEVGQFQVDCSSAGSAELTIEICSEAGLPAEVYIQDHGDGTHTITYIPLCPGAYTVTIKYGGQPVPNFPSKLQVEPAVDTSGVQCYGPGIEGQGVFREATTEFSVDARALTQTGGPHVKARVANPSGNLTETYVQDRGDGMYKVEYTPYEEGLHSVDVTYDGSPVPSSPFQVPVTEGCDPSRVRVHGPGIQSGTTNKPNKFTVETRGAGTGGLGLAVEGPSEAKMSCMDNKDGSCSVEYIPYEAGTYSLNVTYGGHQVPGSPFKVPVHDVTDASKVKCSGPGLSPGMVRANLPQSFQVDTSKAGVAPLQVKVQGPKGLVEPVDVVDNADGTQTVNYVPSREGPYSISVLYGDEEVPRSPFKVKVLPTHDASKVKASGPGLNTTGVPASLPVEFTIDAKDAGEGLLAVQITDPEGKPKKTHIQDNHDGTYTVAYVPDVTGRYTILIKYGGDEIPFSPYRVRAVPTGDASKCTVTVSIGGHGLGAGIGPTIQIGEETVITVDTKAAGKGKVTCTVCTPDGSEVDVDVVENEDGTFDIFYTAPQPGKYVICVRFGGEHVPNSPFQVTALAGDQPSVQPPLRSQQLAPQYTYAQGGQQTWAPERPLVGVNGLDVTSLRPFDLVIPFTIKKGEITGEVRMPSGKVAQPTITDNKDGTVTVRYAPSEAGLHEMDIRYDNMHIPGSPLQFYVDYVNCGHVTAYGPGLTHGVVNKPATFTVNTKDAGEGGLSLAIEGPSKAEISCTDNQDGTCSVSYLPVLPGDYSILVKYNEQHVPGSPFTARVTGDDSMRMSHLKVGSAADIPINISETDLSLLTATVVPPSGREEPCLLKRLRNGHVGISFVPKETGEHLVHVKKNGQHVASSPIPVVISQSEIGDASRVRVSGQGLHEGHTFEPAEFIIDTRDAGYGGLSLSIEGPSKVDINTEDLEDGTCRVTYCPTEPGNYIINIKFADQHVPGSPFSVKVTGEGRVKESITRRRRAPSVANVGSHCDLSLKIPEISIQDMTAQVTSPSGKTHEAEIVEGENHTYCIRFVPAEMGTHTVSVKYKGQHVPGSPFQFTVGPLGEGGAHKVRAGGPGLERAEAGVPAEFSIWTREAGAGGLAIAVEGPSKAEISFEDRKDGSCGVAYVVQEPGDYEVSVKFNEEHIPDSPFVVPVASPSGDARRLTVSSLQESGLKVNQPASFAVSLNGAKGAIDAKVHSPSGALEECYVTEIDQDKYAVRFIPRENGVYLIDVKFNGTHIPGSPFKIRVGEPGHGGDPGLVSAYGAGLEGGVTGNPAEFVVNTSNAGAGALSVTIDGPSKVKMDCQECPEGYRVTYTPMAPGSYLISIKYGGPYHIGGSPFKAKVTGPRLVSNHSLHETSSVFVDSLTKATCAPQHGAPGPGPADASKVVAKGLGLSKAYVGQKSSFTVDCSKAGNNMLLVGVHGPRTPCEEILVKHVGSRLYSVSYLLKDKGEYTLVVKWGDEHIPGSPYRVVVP
Sequence of proteins of HEK293T cells transiently overexpressing caspase-6 (Homo sapiens, UniProt P08195) (P08195 102-630): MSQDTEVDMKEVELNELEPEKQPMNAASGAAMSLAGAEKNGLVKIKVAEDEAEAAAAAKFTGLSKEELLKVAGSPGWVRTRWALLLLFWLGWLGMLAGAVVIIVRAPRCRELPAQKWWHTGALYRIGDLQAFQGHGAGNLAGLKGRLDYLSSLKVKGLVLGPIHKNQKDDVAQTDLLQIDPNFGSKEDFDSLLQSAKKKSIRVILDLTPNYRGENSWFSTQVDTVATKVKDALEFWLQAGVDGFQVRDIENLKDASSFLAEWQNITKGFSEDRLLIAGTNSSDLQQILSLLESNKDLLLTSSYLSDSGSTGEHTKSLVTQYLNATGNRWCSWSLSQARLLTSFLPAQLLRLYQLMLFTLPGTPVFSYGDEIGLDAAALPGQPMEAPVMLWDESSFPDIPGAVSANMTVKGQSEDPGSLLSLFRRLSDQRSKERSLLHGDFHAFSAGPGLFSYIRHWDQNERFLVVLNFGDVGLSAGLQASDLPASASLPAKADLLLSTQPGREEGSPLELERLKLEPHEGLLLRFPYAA
Sequence of proteins of HEK293T cells transiently overexpressing caspase-6 (Homo sapiens, UniProt P27797) (P27797 18-417): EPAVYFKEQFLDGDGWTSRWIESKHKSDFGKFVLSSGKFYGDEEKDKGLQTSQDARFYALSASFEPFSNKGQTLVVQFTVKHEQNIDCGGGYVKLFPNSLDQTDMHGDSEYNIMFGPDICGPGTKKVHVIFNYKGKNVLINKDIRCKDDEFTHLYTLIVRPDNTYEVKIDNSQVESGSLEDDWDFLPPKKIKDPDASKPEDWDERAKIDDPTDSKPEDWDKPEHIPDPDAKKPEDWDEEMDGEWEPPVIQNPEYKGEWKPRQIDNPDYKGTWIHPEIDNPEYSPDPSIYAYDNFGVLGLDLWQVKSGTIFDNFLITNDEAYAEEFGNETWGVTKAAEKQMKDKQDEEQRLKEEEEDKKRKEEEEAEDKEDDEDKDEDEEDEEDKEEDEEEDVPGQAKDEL
Sequence of proteins of HEK293T cells transiently overexpressing caspase-6 (Homo sapiens, UniProt P04406) (P04406 whole entry): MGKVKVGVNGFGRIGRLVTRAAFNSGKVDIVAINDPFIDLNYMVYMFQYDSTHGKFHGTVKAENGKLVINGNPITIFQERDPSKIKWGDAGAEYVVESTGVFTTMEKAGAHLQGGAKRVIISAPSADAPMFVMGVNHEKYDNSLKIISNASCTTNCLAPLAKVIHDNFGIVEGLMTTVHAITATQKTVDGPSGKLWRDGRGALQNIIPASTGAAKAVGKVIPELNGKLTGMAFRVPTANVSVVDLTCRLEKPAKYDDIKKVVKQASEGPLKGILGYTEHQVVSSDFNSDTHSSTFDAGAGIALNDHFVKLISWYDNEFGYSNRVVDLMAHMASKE
Sequence of proteins of HEK293T cells transiently overexpressing caspase-6 (Homo sapiens, UniProt P23526) (P23526 whole entry): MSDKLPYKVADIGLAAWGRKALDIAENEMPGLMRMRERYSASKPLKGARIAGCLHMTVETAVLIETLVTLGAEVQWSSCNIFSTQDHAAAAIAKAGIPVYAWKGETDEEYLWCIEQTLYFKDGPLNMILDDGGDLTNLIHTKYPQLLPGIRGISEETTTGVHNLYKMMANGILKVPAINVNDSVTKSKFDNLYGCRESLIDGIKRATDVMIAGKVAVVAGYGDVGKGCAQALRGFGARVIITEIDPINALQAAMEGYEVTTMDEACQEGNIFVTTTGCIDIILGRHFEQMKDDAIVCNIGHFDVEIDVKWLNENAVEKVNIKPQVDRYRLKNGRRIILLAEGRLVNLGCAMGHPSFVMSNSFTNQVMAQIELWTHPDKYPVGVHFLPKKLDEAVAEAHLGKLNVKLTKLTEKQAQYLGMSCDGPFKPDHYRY
Sequence of proteins of HEK293T cells transiently overexpressing caspase-6 (Homo sapiens, UniProt Q92841) (Q92841 whole entry): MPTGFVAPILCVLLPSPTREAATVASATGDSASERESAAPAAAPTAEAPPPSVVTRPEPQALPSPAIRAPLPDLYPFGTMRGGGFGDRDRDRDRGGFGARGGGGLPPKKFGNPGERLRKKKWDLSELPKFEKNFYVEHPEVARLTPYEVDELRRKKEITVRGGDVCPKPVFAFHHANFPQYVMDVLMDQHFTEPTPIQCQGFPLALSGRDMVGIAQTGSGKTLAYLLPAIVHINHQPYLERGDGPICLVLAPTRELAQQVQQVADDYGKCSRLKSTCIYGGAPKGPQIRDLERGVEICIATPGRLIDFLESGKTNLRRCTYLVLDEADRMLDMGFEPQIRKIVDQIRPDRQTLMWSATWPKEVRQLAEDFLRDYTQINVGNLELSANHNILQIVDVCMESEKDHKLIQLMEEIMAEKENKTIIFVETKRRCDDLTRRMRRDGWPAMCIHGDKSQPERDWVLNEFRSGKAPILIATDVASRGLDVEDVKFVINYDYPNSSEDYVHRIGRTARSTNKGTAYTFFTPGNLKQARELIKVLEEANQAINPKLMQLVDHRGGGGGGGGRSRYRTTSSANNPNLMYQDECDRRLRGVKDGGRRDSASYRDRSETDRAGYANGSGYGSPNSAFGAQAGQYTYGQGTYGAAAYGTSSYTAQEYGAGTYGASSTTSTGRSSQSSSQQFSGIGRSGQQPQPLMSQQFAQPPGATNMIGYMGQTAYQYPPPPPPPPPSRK

`C#CCOc1ccc([C@@H]2C[C@@H](C(=O)Nc3ccc(OC(F)(F)F)cc3)CN(S(=O)(=O)C=C)C2)cc1` (relative stereo) [13-t] gave an enrich.exp.med ([1]; Probe, protein GSR P00390) of -1.323, an enrich.exp.med.lin ([1]; protein GSR (P00390)) of 0.3998 and an enrich.exp.med.log2 ([1]; protein GSR (P00390)) of -1.323. The enrich.exp.med [2] was 0.4718, the enrich.exp.med [3] was 1.379 and the enrich.exp.med ([4]; exp_ref Probe, analysis C6) was 0.988. For the same molecule, the enrich.exp.med.lin [4] was 1.9835, the enrich.exp.med.log2 [4] was 0.988 and the enrich.exp.med ([5]; Probe, protein FLNA P21333) was -0.9107. It also gave an enrich.exp.med.lin ([5]; protein FLNA (P21333)) of 0.5319, an enrich.exp.med.log2 ([5]; protein FLNA (P21333)) of -0.9107 and an enrich.exp.med [6] of 0.06916. The enrich.exp.med [7] was 0.5687, the enrich.exp.med [8] was -2.762 and the enrich.exp.med ([9]; exp_ref Probe, analysis C6) was 0.3462. It also gave an enrich.exp.med.lin [9] of 1.2712, an enrich.exp.med.log2 [9] of 0.3462 and an enrich.exp.med [10] of 0.2175. It also gave an enrich.exp.med [11] of 0.3365, an enrich.exp.med ([12]; Probe, protein MCCC1 Q96RQ3) of -2.028 and an enrich.exp.med.lin ([12]; protein MCCC1 (Q96RQ3)) of 0.2451. The enrich.exp.med.log2 ([12]; protein MCCC1 (Q96RQ3)) was -2.028, the enrich.exp.med [13] was -0.3317 and the enrich.exp.med [14] was 0.6428.
